Series [1] concerns A375SM human melanoma cells. The experiment in a line: Cytotoxicity check of treatments. As to conditions: trypan blue exclusion; 3H-TdR or [35S]methionine incorporation; not shown. It counts as cell-based.
In another series the test system is beta1 integrin subunit. Description: Flow cytometry, cell surface expression of beta1 integrin after treatment. Type of series: cell-based, human. As to conditions: 1 mM xyloside 24 h (Fig. 2) or chondroitinase ABC (not shown); mAb P4C10.
A further series concerns alpha4 integrin subunit. Description: Flow cytometry, cell surface expression of alpha4 integrin after treatment. It counts as cell-based, human. To be noted: 1 mM xyloside 24 h (Fig. 2) or chondroitinase ABC (not shown); mAb P4C2.
The target in series [2] is CSPG binding to 33-kD fragment. The arrangement: species or system human. To be noted: inhibitor 500 ug/ml, 2 h, 4°C; CSPG about 7,000 dpm; buffer control <50.
Series [3] has as its system A375SM human melanoma cells. Type of series: cell-based. To be noted: for effect of ctDX (alphaDX) on cell adhesion to peptide: 1 mM inactive analogue, FN-C/H-III Fig. 5A, others not shown.
The test system of series [4] is A375SM human melanoma cells. It counts as cell-based.
The subject of series [5] is purified melanoma cell CSPG. Description: Binding of purified melanoma CSPG or CS to peptide/OVA affinity columns. Also on record: species or system human.
For series [6] the following is noted: earlier work, ref McCarthy et al., 1988a, 1990, Haugen et al.; cited from earlier work.
Series [7] deals with A375SM human melanoma cells. The experiment in a line: Promotion of melanoma cell adhesion to coated substrata. Type of series: cell-based. To be noted: for amount of coated ligand that promoted half maximal cell adhesion: peptide/OVA conjugate on Immulon 1 polystyrene wells, 30-min assay.
A further series relates to anti-FN-C/H-III IgG. Description: ELISA of purified anti-FN-C/H-III IgG. It counts as binding, rabbit. To be noted: coated substrata; not shown.
Series [8] has as its target tryptic/catheptic 33-kD carboxyl-terminal heparin binding fragment of human plasma fibronectin A-chains (human). Description: ligand affinity column chromatography, competition.
The mark [9] stands for this setting: wells coated with 100 nmole FN-C/H-III/OVA (Fig. 5A).

As for chondroitinase ABC, in series [1], the “cytotoxic effect as cause of the inhibition of cell adhesion” value is “not due to cytotoxic”. Moreover, the “cell surface beta1 integrin level compared to untreated controls” value with beta1 integrin subunit is reported as “identical”. Moreover, in the series with alpha4 integrin subunit, the “cell surface alpha4 integrin level compared to untreated controls” value is “identical”.
As to “OVA/OVA: ovalbumin coupled to ovalbumin, control conjugate”, the “CSPG in flow through of 33-kD fragment affinity column” value in [2] came out at 123 dpm.
For the compound KNNQKSEPLIGRKKT [FN-C/H-II], in series [3], the “effect of ctDX (alphaDX) on cell adhesion to peptide” value is “resistant”. Also, the “inhibition of cell adhesion by chondroitinase ABC or /3DX” value in series [3] (approximate, stated in text for chondroitinase ABC or /3DX) is ~ 50%. Besides, in series [4] (P1D6 (Fig. 8), mean of triplicate), the “effect of anti-alpha5 integrin mAb P1D6 on cell adhesion to peptide” value is listed as “did not inhibit”. Moreover, in series [4] (P4C2, not shown), the “inhibition of cell adhesion to peptide by anti-alpha4 integrin mAb P4C2” value is on record as 50-60%. In addition, in [5] (affinity column, Discussion), the “CSPG binding affinity compared with FN-C/H-III” value is “lower affinity than that observed for FN-C/H-III”. In addition, the “binding of purified CSPG to peptide affinity column” value in [5] (peptide/OVA column, applied in 0.05 M NaCl (Fig. 7)) was “bound purified CSPG”. The heparin binding entry in series [6] is recorded as “bind heparin”. For the same compound, the “amount of coated ligand that promoted half maximal cell adhesion” value in series [7] came to 20 nmol. For the same compound, the “recognition by anti-FN-C/H-III IgG in ELISA” value in the series on anti-FN-C/H-III IgG is on record as “did not recognize”.
Consider “cell surface chondroitin sulfate proteoglycan (CSPG) purified from A375SM human melanoma cells”, for which the radioactivity bound to the 33-kD fragment column, buffer alone in series [8] turned out to be 6980 dpm.
Take `O=[N+]([O-])c1ccc(O[C@@H]2OC[C@@H](O)[C@H](O)[C@H]2O)cc1` [/3DX, p-nitrophenyl-/3-o-xylopyranoside]: the “cytotoxic effect as cause of the inhibition of cell adhesion” value in series [1] is “not due to cytotoxic”. For the same compound, in the series with beta1 integrin subunit, the “cell surface beta1 integrin level compared to untreated controls” value is “identical”. The “cell surface alpha4 integrin level compared to untreated controls” value in the series with alpha4 integrin subunit is “identical”.
In the case of `O=[N+]([O-])c1ccc(O[C@H]2OC[C@@H](O)[C@H](O)[C@H]2O)cc1` [ctDX, p-Nitrophenyl-ct-o-xylopyranoside], in series [1], the “cytotoxic effect as cause of the inhibition of cell adhesion” value is given as “not due to cytotoxic”.
Consider YRVRVTPKEKTGPMKE [FN-C/H-III], for which the “effect of /3DX on cell adhesion to FN-C/H-III” value in series [3] (1 mM /3DX, wells coated with 100 nmole FN-C/H-III/OVA (Fig. 5A)) is reported as “inhibited”. In series [3], the “effect of ctDX (alphaDX) on cell adhesion to peptide” value is “not by heparitinase or t~DX”. In series [3] (setting [9]), the “effect of chondroitinase ABC on cell adhesion to FN-C/H-III” value is given as “inhibited” and the “effect of heparitinase on cell adhesion to FN-C/H-III” value was “not by heparitinase”. Besides, the “effect of anti-alpha4 integrin mAb P4C2 on cell adhesion to peptide” value in [4] (P4C2, FN-C/H-III coated substrata) is on record as “did not inhibit cell adhesion”. Besides, the “promotion of melanoma cell adhesion” value in [7] (FN-C/H-III/OVA coated wells, 30-min assay (Fig. 4A)) is “promoted melanoma cell adhesion”. In series [7], the “amount of coated ligand that promoted half maximal cell adhesion” value worked out at 100 nmol. Besides, in the series on anti-FN-C/H-III IgG, the “recognition by anti-FN-C/H-III IgG in ELISA” value was “specifically recognized”.

The values above are taken from PMC2290058 (The Journal of Cell Biology, 1992).
